The numbers were not newly measured in patent EP0276807A2, “Lipid regulating compositions” (WARNER-LAMBERT COMPANY, priority 1987, dated 1988), which cites them from elsewhere.

The target of the data set is T1, HMG-CoA reductase (Homo sapiens, UniProt P04035).
T1 sequence (P04035 1-888): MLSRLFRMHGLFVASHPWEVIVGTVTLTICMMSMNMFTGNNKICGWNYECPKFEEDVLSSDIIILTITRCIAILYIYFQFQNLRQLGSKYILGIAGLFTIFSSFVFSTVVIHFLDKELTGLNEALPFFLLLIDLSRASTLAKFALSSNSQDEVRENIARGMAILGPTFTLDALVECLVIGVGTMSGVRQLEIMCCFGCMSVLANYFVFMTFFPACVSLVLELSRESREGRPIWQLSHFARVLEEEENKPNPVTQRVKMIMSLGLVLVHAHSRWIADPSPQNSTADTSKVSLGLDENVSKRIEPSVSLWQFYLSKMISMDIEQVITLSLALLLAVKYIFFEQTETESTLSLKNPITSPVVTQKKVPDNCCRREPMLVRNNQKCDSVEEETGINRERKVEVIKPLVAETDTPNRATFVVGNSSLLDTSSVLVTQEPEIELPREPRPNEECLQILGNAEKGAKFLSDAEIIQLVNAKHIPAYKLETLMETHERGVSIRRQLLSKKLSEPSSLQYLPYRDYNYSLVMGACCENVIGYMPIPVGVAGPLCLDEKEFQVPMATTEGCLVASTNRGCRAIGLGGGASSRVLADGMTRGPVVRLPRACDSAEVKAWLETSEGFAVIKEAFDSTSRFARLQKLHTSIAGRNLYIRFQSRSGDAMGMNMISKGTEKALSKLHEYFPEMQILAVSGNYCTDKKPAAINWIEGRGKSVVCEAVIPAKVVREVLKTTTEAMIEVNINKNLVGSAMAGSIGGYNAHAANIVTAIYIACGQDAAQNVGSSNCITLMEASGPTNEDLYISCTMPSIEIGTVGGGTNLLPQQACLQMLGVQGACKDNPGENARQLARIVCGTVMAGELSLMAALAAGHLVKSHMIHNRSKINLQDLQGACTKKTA
Conditions: read-out: IC₅₀ value for inhibition of HMG-CoA reductase.

Regarding `CCC(C)C(=O)OC1CC(C)C=C2C=CC(C)C(CCC(O)CC(O)CC(=O)O)C21` (stereo not drawn) [Mevinolinic acid, [1S-[1α(βS*,δS*),2α,6β,8β(R*)8aα]]-1,2,6,7,8,8a-hexahydro-β,δ-dihydroxy-2,6-dimethyl-8-(2-methyl-1-oxobutoxy)-1-naphthaleneheptanoic acid], the IC50 was approximately 5.6 nM.
